Measured values from patent publication US20230031369A1, “THERAPEUTIC INTERACTIONS OF LEUCOMETHYLTHIONINIUM” (WisTa Laboratories Ltd., priority 2019, published 2023).
“Also recorded” adds a separate entry of the source.

How the values were obtained:
[1] = tested on: ACh levels in the hippocampus; assay: Hippocampal ACh levels with scopolamine and 100 nanomolar rivastigmine in the perfusion fluid; type: in vivo, wild type mice
Procedure: Under the condition of cholinesterase inhibition used in these experiments (a very small amount of a cholinesterase inhibitor, 100 nanomolar rivastigmine, added to the perfusion fluid), ACh levels in the hippocampus rise, and when they rise strongly enough, they limit additional ACh release by activating pre-synaptic muscarinic receptors of the M2/M4 subtype (so-called negative feedback receptors).
In this situation, adding scopolamine (1 μM) to the perfusion fluid blocks these presynaptic receptors and, as a consequence, ACh levels rise by 3-5 fold. The fact that LMTM is not additive with rivastigmine in these experiments supports the conclusion that LMTM has a different mechanism of action from rivastigmine. In other words, although LMTM has been described as being a weak inhibitor of cholinesterases in high concentrations, the present effects seem to be unrelated to cholinesterase inhibition, because there is no additive effect with small quantities of rivastigmine.

[2] = tested on: glutamate release from brain synaptosomal preparations; assay: Glutamate release from brain synaptosomal preparations, L1 mice; type: in vivo, tau transgenic L1 mice
core tau unit of the PHF = molecular target: T1, core tau unit of the PHF (Homo sapiens, UniProt P10636); assay: Tau immunoreactivity (relative optical density) in vertical diagonal band, L1 mice; type: in vivo, tau transgenic L1 mice
T1 construct: three-repeat tau fragment encompassing residues 296-390 of the 2N4R tau isoform; expressed in transfected cells; host or cells: transgenic L1 mice (NMRI strain, Thy 1 promotor), brain sections of the vertical diagonal band
Procedure: FIG. 5. Treatment effects of LMTM alone or following chronic pretreatment with rivastigmine in tau transgenic L1 mice compared with vehicle-treated wild-type mice on levels of tau immunoreactivity (relative optical density) (A) and neurons immunoreactive for choline acetyltransferase (B) in vertical diagonal band. (*, p<0.05; **, p<0.01; ***, p<0.001).
(§1) Wild-type and L1 mice (n=7-16 for each group) were pre-treated with rivastigmine (0.1 or 0.5 mg/kg/day) or memantine (2 or 20 mg/kg/day) or vehicle for 5 weeks by gavage. For the following 6 weeks, LMTM (5 and 15 mg/kg) or vehicle were added to this daily treatment regime, also by gavage. Animals were tested behaviourly during weeks 10 and 11 using a problem solving task in the open field water maze and then sacrificed for immunohistochemical and other tissue analyses.
(§2) Translating doses from mice to humans requires consideration of a number of factors. […] The higher dose of 15 mg/kg/day is generally required for LMTM to be fully effective in the L1 mouse model (Melis et al., 2015a). […] Tissue sectioned for immunohistochemistry was labelled with antibody and processed using Image J to determine protein expression densitometrically. Data are presented as Z-score transformations without units.

[3] = tested on: acetylcholine (ACh) levels in hippocampus; assay: Hippocampal ACh levels by microdialysis and HPLC, L1 mice; type: in vivo, tau transgenic L1 mice
Procedure: (§3) For measurement of acetylcholine (ACh) levels in hippocampus, animals (wild-type or L1) were treated with LMTM (5 mg/kg/day for 2 weeks) after prior treatment for 2 weeks with or without rivastigmine (0.5 mg/kg/day). Rivastigmine was administered subcutaneously with an Alzet minipump whereas LMTM was administered by oral gavage. Levels of ACh were measured in hippocampus using an implanted microdialysis probe and HPLC analysis of the extracellular fluid.

[4] = tested on: SNARE complex proteins (SNAP25, syntaxin and VAMP2); assay: Immunohistochemistry of SNARE complex proteins, L1 mice; type: in vivo, tau transgenic L1 mice; conditions: combination of LMTM with chronic rivastigmine pretreatment
Procedure: FIG. 3. Treatment effects of LMTM alone or following chronic pretreatment with rivastigmine in tau transgenic L1 mice on levels of (A) SNARE complex proteins (SNAP25, syntaxin and VAMP2) and (B) α-synuclein measured immunohistochemically as the mean value for hippocampus, visual cortex, diagonal band and septum. (*, p<0.05; ***, p<0.001; ****, p<0.0001).
as §1, §2

wild-type mice = assay: Problem solving task in the open field water maze, wild-type mice; type: in vivo; conditions: LMTM
Procedure: as §1

[5] = ADAS-cog change after withdrawal of LMTM 8 mg/day following 18 months of treatment; type: in vivo, human
Procedure: Following 18 months of treatment with 8 mg/day LMTM, subjects were required to have a 1 month “washout” followed by cognitive assessment of change. The group was split according to whether they has received LMTM as an add-on to existing symptomatic therapy (AChEI, Memantine, collectively abbreviated to “Achmem”) or as a monotherapy.
The group was further analysed in terms of subjects who had received a high Cmax exposure or a low one.

[6] = 8 mg/day dose; split at Cmax threshold of […]; from WO2020/020751; cited from earlier work
tau transgenic L1 mice = assay: Problem solving task in the open field water maze, L1 mice; type: in vivo
Procedure: FIG. 7. Effect of combined administration of Memantine and LMTM on problem solving deficits in female Line 1 mice, aged 5.5 months at the beginning of the study. Memantine was administered at 20 mg/kg and LMTM at 15 mg/kg. Mice were treated with vehicle or Memantine for 5 weeks prior to Memantine plus LMTM treatment for 6 weeks, with the mice being tested in the water maze task over weeks 10 and 11.
as §1

mitochondrial complex IV [7] = assay: Complex IV activity in brain mitochondria, wild-type mice; type: in vivo; conditions: following LMTM treatment
Procedure: as §1

[8] = tested on: acetylcholine (ACh) levels in hippocampus; assay: Hippocampal ACh levels by microdialysis and HPLC, wild-type mice; type: in vivo; conditions: LMTM after prior treatment with rivastigmine
Procedure: as §3

mitochondrial complex IV [9] = assay: Complex IV activity relative to citrate synthetase activity in brain mitochondria, L1 mice; type: in vivo, tau transgenic L1 mice
Procedure: as §1

cholinesterase = conditions: reported (Pfaffendorf et al., 1997; Deiana et al., 2009); cited from earlier work
pathological tau = conditions: in vivo (Congdon et al., 2012); cited from earlier work
electron transfer chain = conditions: acting as a supplementary electron carrier in the electron transfer chain; cited from earlier work
[10] = LMTM preceded by chronic rivastigmine

T1 sequence (P10636 613-707): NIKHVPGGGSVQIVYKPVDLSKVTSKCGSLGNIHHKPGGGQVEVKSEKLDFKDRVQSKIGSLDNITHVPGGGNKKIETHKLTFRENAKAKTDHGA

CN(C)c1ccc2c(c1)Sc1cc(N(C)C)ccc1N2 [LMTM, Leuco-methylthioninium bis(hydromethanesulfonate)]
ACh levels ([1]; wild type mice, scopolamine experiments, combination of LMTM with rivastigmine): inhibitory; also recorded: not additive
increase in ACh levels ([1]; wild type mice, scopolamine used to increase ACh levels, LMTM alone): less than that seen with rivastigmine alone
glutamate release from brain synaptosomal preparations ([2]; LMTM alone): increased; also recorded: significant increases; also recorded: restoration of normal glutamate release
glutamate release from brain synaptosomal preparations [2, 10]: None of these effects were seen
immunoreactivity against the core tau unit of the PHF measured by optical density (core tau unit of the PHF; LMTM after prior chronic treatment with rivastigmine): persist
immunoreactivity against the core tau unit of the PHF measured by optical density (core tau unit of the PHF; LMTM alone): reduced
ACh release in the hippocampus ([3]; LMTM alone): increased; also recorded: significant increases
ACh release in the hippocampus [3, 10]: None of these effects were seen
SNARE complex proteins [4]: levels below those seen in the absence of LMTM treatment
spatial recognition memory (wild-type mice): not associated with improvement
ADAS-cog change following LMTM withdrawal ([5]; 18 month LMTM 8 mg/day as add on to symptomatic therapy (AChEI, Memantine), high exposure (Cmax) group, p-value=0.0021): −0.98
ADAS-cog change following LMTM withdrawal ([5]; 18 month LMTM 8 mg/day as add on to symptomatic therapy (AChEI, Memantine), lower exposure group, p-value=0.0855): 0.51
ADAS-cog change following LMTM withdrawal ([5]; 18 month LMTM 8 mg/day monotherapy, high exposure (Cmax) group, p-value=0.1651): 0.73
ADAS-cog change following LMTM withdrawal ([5]; 18 month LMTM 8 mg/day monotherapy, lower exposure group, p-value=0.0011): 2.29
treatment difference in high and low Cmax patients [6]: −3.4 ADAS-cog units
behavioural changes (spatial learning) (tau transgenic L1 mice; LMTM alone): reversed deficits; also recorded: significant increases
behavioural changes (tau transgenic L1 mice; [10]): None of these effects were seen
complex IV activity (mitochondrial complex IV [7]): did not show any increase; also recorded: no effect
reduction in basal ACh levels in hippocampus [8]: 30%
mitochondrial complex IV activity (mitochondrial complex IV [9]; LMTM alone): increased; also recorded: significant increases; also recorded: significant enhancement; also recorded: strong effect
mitochondrial complex IV activity (mitochondrial complex IV [9]; [10]): None of these effects were seen; also recorded: eliminated this effect

CN(C)c1ccc2nc3ccc(=[N+](C)C)cc-3sc2c1 [MT, Methylthioninium]
cholinesterase inhibition (cholinesterase): weak cholinesterase inhibitor
concentration range increasing clearance of pathological tau via enhancement of autophagy (pathological tau): 10-20 nM
concentrations at which mitochondrial activity is enhanced (electron transfer chain): 10 to 100 nM

CN1[C@@H]2C[C@@H](OC(=O)[C@H](CO)c3ccccc3)C[C@H]1[C@@H]1O[C@@H]12 [scopolamine, reference compound]
rise in ACh levels ([1]; scopolamine 1 μM added to the perfusion fluid containing 100 nanomolar rivastigmine): 3-5 fold
